{
  "source": "patent US20240254118A1",
  "about": "“PRMT5 INHIBITORS AND USES THEREOF” (Gilead Sciences, Inc., priority 2022, published 2024)",
  "data": [
    {"system": "HCT116 MTAP-deleted cells", "test": "Cell viability assay (CellTiter-Glo, 7 days), HCT116 MTAP-deleted", "settings": "Homo sapiens, HCT-116, 168 h", "units": {"CC50": "nM"}, "values": [
      {"smiles": "CC(=O)N(C)N(Cc1ccc(-c2cnn(C(F)(F)F)c2)nc1F)C(=O)c1ccc2nc(N)c3cnn(C)c3c2c1", "note": "[Example 347, N′-acetyl-4-amino-N-((2-fluoro-6-(1-(trifluoromethyl)-1H-pyrazol-4-yl)pyridin-3-yl)methyl)-N′,1-dimethyl-1H-pyrazolo[4,3-c]quinoline-8-carbohydrazide]", "CC50": "< 100"},
      {"smiles": "CC(=O)N(C)N(Cc1ccc(-c2cnn(C(F)F)c2)nc1F)C(=O)c1ccc2nc(N)c3cnn(C)c3c2c1", "note": "[Example 348, N′-acetyl-4-amino-N-((6-(1-(difluoromethyl)-1H-pyrazol-4-yl)-2-fluoropyridin-3-yl)methyl)-N′,1-dimethyl-1H-pyrazolo[4,3-c]quinoline-8-carbohydrazide]", "CC50": "< 100"},
      {"smiles": "CN(C(=O)C1CC1)N(Cc1ccc(-c2cnn(C(F)F)c2)cn1)C(=O)c1ccc2nc(N)c3cnn(C)c3c2c1", "note": "[Example 353, 4-amino-N′-(cyclopropanecarbonyl)-N-((5-(1-(difluoromethyl)-1H-pyrazol-4-yl)pyridin-2-yl)methyl)-N′,1-dimethyl-1H-pyrazolo[4,3-c]quinoline-8-carbohydrazide]", "CC50": "< 100"},
      {"smiles": "CN(C(=O)C1CC1)N(Cc1ccc(Br)cn1)C(=O)c1ccc2nc(N)c3cnn(C)c3c2c1", "note": "[Example 354, 4-amino-N-((5-bromopyridin-2-yl)methyl)-N′-(cyclopropanecarbonyl)-N′,1-dimethyl-1H-pyrazolo[4,3-c]quinoline-8-carbohydrazide]", "CC50": "< 100"},
      {"smiles": "CN(C(=O)C1CC1)N(Cc1ccc(-c2cncs2)cn1)C(=O)c1ccc2nc(N)c3cnn(C)c3c2c1", "note": "[Example 355, 4-amino-N′-(cyclopropanecarbonyl)-N′,1-dimethyl-N-((5-(thiazol-5-yl)pyridin-2-yl)methyl)-1H-pyrazolo[4,3-c]quinoline-8-carbohydrazide]", "CC50": "< 100"},
      {"smiles": "CN(C(=O)C1CC1)N(Cc1ccc(-c2cnn(C)c2)cn1)C(=O)c1ccc2nc(N)c3cnn(C)c3c2c1", "note": "[Example 356, 4-amino-N′-(cyclopropanecarbonyl)-N′,1-dimethyl-N-((5-(1-methyl-1H-pyrazol-4-yl)pyridin-2-yl)methyl)-1H-pyrazolo[4,3-c]quinoline-8-carbohydrazide]", "CC50": "100 to 1000"},
      {"smiles": "CN(C(=O)C1CC1)N(Cc1ccc(C2CC2)cn1)C(=O)c1ccc2nc(N)c3cnn(C)c3c2c1", "note": "[Example 357, 4-amino-N′-(cyclopropanecarbonyl)-N-((5-cyclopropylpyridin-2-yl)methyl)-N′,1-dimethyl-1H-pyrazolo[4,3-c]quinoline-8-carbohydrazide]", "CC50": "< 100"},
      {"smiles": "CN(C(=O)C1CC1(F)F)N(Cc1ccc(C(F)(F)F)cn1)C(=O)c1ccc2nc(N)c3cnn(C)c3c2c1", "note": "(centres unmarked) [Example 358, 4-amino-N′-(2,2-difluorocyclopropane-1-carbonyl)-N′,1-dimethyl-N-((5-(trifluoromethyl)pyridin-2-yl)methyl)-1H-pyrazolo[4,3-c]quinoline-8-carbohydrazide]", "CC50": "< 100"},
      {"smiles": "CC(=O)N(C)N(Cc1c(F)cc(Cl)cc1F)C(=O)c1ccc2nc(N)c3cnn(C)c3c2c1", "note": "[Example 367, N′-acetyl-4-amino-N-(4-chloro-2,6-difluorobenzyl)-N′,1-dimethyl-1H-pyrazolo[4,3-c]quinoline-8-carbohydrazide]", "CC50": "< 100"},
      {"smiles": "CC(=O)N(C)N(Cc1cc(F)c(C(F)(F)F)cc1F)C(=O)c1ccc2nc(N)c3cnn(C)c3c2c1", "note": "[Example 368, N′-acetyl-4-amino-N-(2,5-difluoro-4-(trifluoromethyl)benzyl)-N′, 1-dimethyl-1H-pyrazolo[4,3-c]quinoline-8-carbohydrazide]", "CC50": "< 100"},
      {"smiles": "CN(C(=O)C1CC1)N(Cc1ccc(-c2ccc(C(F)(F)F)s2)cn1)C(=O)c1ccc2nc(N)c3cnn(C)c3c2c1", "note": "[Example 369, 4-amino-N′-(cyclopropanecarbonyl)-N′,1-dimethyl-N-((5-(5-(trifluoromethyl)thiophen-2-yl)pyridin-2-yl)methyl)-1H-pyrazolo[4,3-c]quinoline-8-carbohydrazide]", "CC50": "< 100"},
      {"smiles": "CN(C(=O)C1CC1)N(Cc1ccc(C(F)F)cn1)C(=O)c1ccc2nc(N)c3cnn(C)c3c2c1", "note": "[Example 370, 4-amino-N′-(cyclopropanecarbonyl)-N-((5-(difluoromethyl)pyridin-2-yl)methyl)-N′,1-dimethyl-1H-pyrazolo[4,3-c]quinoline-8-carbohydrazide]", "CC50": "< 100"},
      {"smiles": "CC(=O)N(C)N(Cc1ccc(C(F)(F)F)c(F)c1F)C(=O)c1ccc2nc(N)c3cnn(C)c3c2c1", "note": "[Example 371, N′-acetyl-4-amino-N-(2,3-difluoro-4-(trifluoromethyl)benzyl)-N′,1-dimethyl-1H-pyrazolo[4,3-c]quinoline-8-carbohydrazide]", "CC50": "< 100"},
      {"smiles": "CC(=O)N(C)N(Cc1ccc(-c2cnn(C)c2)cc1F)C(=O)c1ccc2nc(N)c3cnn(C)c3c2c1", "note": "[Example 373, N′-acetyl-4-amino-N-[[2-fluoro-4-(1-methylpyrazol-4-yl)phenyl]methyl]-N′,1-dimethyl-pyrazolo[4,3-c]quinoline-8-carbohydrazide]", "CC50": "< 100"},
      {"smiles": "CC(=O)N(C)N(Cc1ccc(-c2cnn(C(F)(F)F)c2)cc1Cl)C(=O)c1ccc2nc(N)c3cnn(C)c3c2c1", "note": "[Example 377, N′-acetyl-4-amino-N-[[2-chloro-4-[1-(trifluoromethyl)pyrazol-4-yl]phenyl]methyl]-N′,1-dimethyl-pyrazolo[4,3-c]quinoline-8-carbohydrazide]", "CC50": "< 100"},
      {"smiles": "CC(=O)N(C)N(Cc1c(F)cc(-c2cnn(C(F)(F)F)c2)cc1F)C(=O)c1ccc2nc(N)c3cnn(C)c3c2c1", "note": "[Example 378, N′-acetyl-4-amino-N-[[2,6-difluoro-4-[1-(trifluoromethyl)pyrazol-4-yl]phenyl]methyl]-N′,1-dimethyl-pyrazolo[4,3-c]quinoline-8-carbohydrazide]", "CC50": "< 100"},
      {"smiles": "CC(=O)N(C)N(Cc1c(F)cc(-c2cnn(C(F)F)c2)cc1F)C(=O)c1ccc2nc(N)c3cnn(C)c3c2c1", "note": "[Example 379, N′-acetyl-4-amino-N-[[4-[1-(difluoromethyl)pyrazol-4-yl]-2,6-difluoro-phenyl]methyl]-N′,1-dimethyl-pyrazolo[4,3-c]quinoline-8-carbohydrazide]", "CC50": "< 100"},
      {"smiles": "CC(=O)N(C)N(Cc1c(F)cc(-c2cnn(C)c2)cc1F)C(=O)c1ccc2nc(N)c3cnn(C)c3c2c1", "note": "[Example 380, N′-acetyl-4-amino-N-[[2,6-difluoro-4-(1-methylpyrazol-4-yl)phenyl]methyl]-N′,1-dimethyl-pyrazolo[4,3-c]quinoline-8-carbohydrazide]", "CC50": "< 100"},
      {"smiles": "CC(=O)N(C)N(Cc1c(F)cc(-c2cnn(C3CC3)c2)cc1F)C(=O)c1ccc2nc(N)c3cnn(C)c3c2c1", "note": "[Example 381, N′-acetyl-4-amino-N-[[4-(1-cyclopropylpyrazol-4-yl)-2,6-difluoro-phenyl]methyl]-N′,1-dimethyl-pyrazolo[4,3-c]quinoline-8-carbohydrazide]", "CC50": "< 100"},
      {"smiles": "CN(C(=O)C1CC1)N(Cc1cc2cc(Cl)ccn2n1)C(=O)c1ccc2nc(N)c3cnn(C)c3c2c1", "note": "[Example 401]", "CC50": "< 100"},
      {"smiles": "CN(C(=O)C1CC1)N(Cc1cc2cc(C(F)(F)F)ccn2n1)C(=O)c1ccc2nc(N)c3cnn(C)c3c2c1", "note": "[Example 404, 4-amino-N′-(cyclopropanecarbonyl)-N′,1-dimethyl-N-((5-(trifluoromethyl)pyrazolo[1,5-a]pyridin-2-yl)methyl)-1H-pyrazolo[4,3-c]quinoline-8-carbohydrazide]", "CC50": "< 100"},
      {"smiles": "CC(=O)N(C)N(Cc1ccc(C#N)cc1C(F)(F)F)C(=O)c1ccc2nc(N)c3cnn(C)c3c2c1", "note": "[Example 407, N′-acetyl-4-amino-N-(4-cyano-2-(trifluoromethyl)benzyl)-N′,1-dimethyl-1H-pyrazolo[4,3-c]quinoline-8-carbohydrazide]", "CC50": "100 to 1000"},
      {"smiles": "CC(=O)N(C)N(Cc1ccc(C#N)cc1OC(F)F)C(=O)c1ccc2nc(N)c3cnn(C)c3c2c1", "note": "[Example 408, N′-acetyl-4-amino-N-(4-cyano-2-(difluoromethoxy)benzyl)-N′,1-dimethyl-1H-pyrazolo[4,3-c]quinoline-8-carbohydrazide]", "CC50": "< 100"},
      {"smiles": "Cc1nc(C(F)(F)F)ccc1CN(C(=O)c1ccc2nc(N)c3cnn(C)c3c2c1)N(C)C(=O)C1CC1", "note": "[Example 409, 4-amino-N′-(cyclopropanecarbonyl)-N′,1-dimethyl-N-((2-methyl-6-(trifluoromethyl)pyridin-3-yl)methyl)-1H-pyrazolo[4,3-c]quinoline-8-carbohydrazide]", "CC50": "< 100"},
      {"smiles": "CC(=O)N(C)N(Cc1ccc(C(F)(F)F)cc1C)C(=O)c1ccc2nc(N)c3cnn(C)c3c2c1", "note": "[Example 410, N′-acetyl-4-amino-N′,1-dimethyl-N-(2-methyl-4-(trifluoromethyl)benzyl)-1H-pyrazolo[4,3-c]quinoline-8-carbohydrazide]", "CC50": "< 100"},
      {"smiles": "CC(=O)N(C)N(Cc1c(F)cc2c(ccn2C)c1F)C(=O)c1ccc2nc(N)c3cnn(C)c3c2c1", "note": "[Example 411, N′-acetyl-4-amino-N-((4,6-difluoro-1-methyl-1H-indol-5-yl)methyl)-N′,1-dimethyl-1H-pyrazolo[4,3-c]quinoline-8-carbohydrazide]", "CC50": "< 100"},
      {"smiles": "CC(=O)N(C)N(Cc1ccc2c(c1)c1ccccc1n2C)C(=O)c1ccc2nc(N)c3cnn(C)c3c2c1", "note": "[Example 412, N′-acetyl-4-amino-N′,1-dimethyl-N-((9-methyl-9H-carbazol-3-yl)methyl)-1H-pyrazolo[4,3-c]quinoline-8-carbohydrazide]", "CC50": "100 to 1000"},
      {"smiles": "CC(=O)N(C)N(Cc1cc(F)c(F)c(F)c1)C(=O)c1ccc2nc(N)c3cnn(C)c3c2c1", "note": "[Example 414, N′-acetyl-4-amino-N′,1-dimethyl-N-(3,4,5-trifluorobenzyl)-1H-pyrazolo[4,3-c]quinoline-8-carbohydrazide]", "CC50": "100 to 1000"},
      {"smiles": "CC(=O)N(C)N(Cc1ccn(-c2ccc(C(F)(F)F)cc2)n1)C(=O)c1ccc2nc(N)c3cnn(C)c3c2c1", "note": "[Example 417, N′-acetyl-4-amino-N′,1-dimethyl-N-((1-(4-(trifluoromethyl)phenyl)-1H-pyrazol-3-yl)methyl)-1H-pyrazolo[4,3-c]quinoline-8-carbohydrazide]", "CC50": "< 100"}
    ]}
  ]
}
